Experiments:
[1] = target: T1, E. coli Tat machinery (IMVs containing overproduced TatABC) (Escherichia coli, UniProt P69423+P69425+P69428); assay: In vitro Tat transport assay of pre-SufI into IMVs, NADH as energy source; type: biochemical; conditions: hit compound 20 μM; NADH 4 mM; 37°C 30 min
Procedure: (§1) To directly test for inhibition of Tat transport, a gel-based in vitro Tat transport assay was performed using pre-SufI, an authentic Tat precursor protein [7]. In short, this assay consists of incubating a Tat substrate and a Δψ-generating energy source with inverted membrane vesicles (IMVs) containing overproduced TatABC, digesting remaining external protein with a protease, and then analyzing via SDS-PAGE. This assay was run twice using NADH and ATP (if warranted) as energy sources to generate the necessary Δψ. NADH generates a Δψ using respiratory proteins (i.e., the NADH dehydrogenase and cytochrome bo3 ubiquinol oxidase complexes) and ATP generates a Δψ by reversal of ATP synthase. A true Tat inhibitor would survive both assays. In contrast, a respiration inhibitor is expected to reduce Tat transport when only one of the two energy sources is used (except for an ionophore).
Fig 8 Effect of Hits from the Local HTS on In Vitro Tat Transport. (A) Tat transport assays of pre-SufI using NADH to generate a Δψ. Inverted membrane vesicles (IMVs; A280 = 5.0), the fluorescent substrate pre-SufI-IAC^Atto565 (90 nM), and NADH (4 mM) were incubated at 37°C for 30 min with DMSO (control) or with hit compound (20 μM). Samples were treated with the protease proteinase K, run on SDS-PAGE, and analyzed by in-gel fluorescence imaging. Assays were run in duplicate. Band intensity corresponds to the amount of protein transported into the IMV lumen. The following 7 compounds survived this screen: 1^JS, 51^JS, 55^JS, 111^JS, 181^JS, 202^JS, and 140^JS (boxed in red). (B) Tat transport assays of pre-SufI using ATP to generate a Δψ. All 7 compounds surviving the screen in (A) were tested using a Tat transport assay performed identically to those in (A) except that ATP (1 mM) was used in place of NADH. Compound 55^JS was eliminated by this assay—the other 6 compounds survived (boxed in red). (C) Chemical structure of compound 55^JS, N-(4,7-Dioxo-4,7-dihydro-2,1,3-benzoxadiazol-5-yl)acetamide.
Isolation of inverted membrane vesicles (IMVs), Western blot analyses and purification of pre-SufI-IAC were performed as described previously. Western blots were performed using rabbit anti-mCherry antibodies (1:10,000 dilution) in the presence of 0.1% Triton X-100 and 0.1% Tween 20. The pre-SufI-IAC protein was labeled with Atto565 maleimide, and the resultant fluorescent protein, pre-SufI-IAC^Atto565, was used as a substrate for the in vitro Tat transport assays (A280 = 5.0), as described previously. The presence of a Δψ was determined by measuring oxonol VI fluorescence in presence of Tat^+ IMVs (A280 = 0.5), as described previously, except that the translocation buffer lacked BSA. Steady-state fluorescence spectra and fluorescence intensities of whole cells producing mCherry proteins were determined with an SLM-8100 spectrofluorometer.
Supplementary file pone.0149659.s003.tiff: S3 Fig IC50's for Hit Compound 181^JS. (A) The total cellular mCherry fluorescence (live cell assay; n = 1), (B) the in vitro NADH-dependent Tat transport efficiency of pre-SufI (n = 1), and (C) the maximum transmembrane electrical potential gradient (n = 1) were measured for a range of concentrations of compound 181^JS (S2E Fig). (D) SDS-PAGE gel showing in-gel fluorescence data used in (B). For (A), cells expressing spTorA-mCherry-SsrA were grown under Tat^++ conditions in a 384-well plate in the presence of 0, 0.08, 0.15, 0.3, 0.63, 1.25, 2.5, 5, 10, 20, or 40 μM compound 181^JS, as described for the HTS assay (see Methods). For (B) and (C), IMVs were incubated with the same concentrations of compound 181^JS prior to initiation of Tat transport and Δψ generation by the addition of NADH, as described previously. The red curves are best-fits using y = d + (100-d)/(1+(x/IC50)^b), where b is a slope factor and d is the high concentration asymptote. (TIFF) Click here for additional data file.

[2] = target: T1, E. coli Tat machinery (IMVs containing overproduced TatABC); assay: In vitro Tat transport assay of pre-SufI into IMVs, ATP as energy source; type: biochemical; conditions: hit compound 20 μM; ATP 1 mM
Procedure: as §1
Fig 8 Effect of Hits from the Local HTS on In Vitro Tat Transport. (A) Tat transport assays of pre-SufI using NADH to generate a Δψ. […] Samples were treated with the protease proteinase K, run on SDS-PAGE, and analyzed by in-gel fluorescence imaging. Assays were run in duplicate. Band intensity corresponds to the amount of protein transported into the IMV lumen. The following 7 compounds survived this screen: 1^JS, 51^JS, 55^JS, 111^JS, 181^JS, 202^JS, and 140^JS (boxed in red). (B) Tat transport assays of pre-SufI using ATP to generate a Δψ. All 7 compounds surviving the screen in (A) were tested using a Tat transport assay performed identically to those in (A) except that ATP (1 mM) was used in place of NADH. […]
Isolation of inverted membrane vesicles (IMVs), Western blot analyses and purification of pre-SufI-IAC were performed as described previously. […] The presence of a Δψ was determined by measuring oxonol VI fluorescence in presence of Tat^+ IMVs (A280 = 0.5), as described previously, except that the translocation buffer lacked BSA. Steady-state fluorescence spectra and fluorescence intensities of whole cells producing mCherry proteins were determined with an SLM-8100 spectrofluorometer.

T1 sequence (P69423 2-258): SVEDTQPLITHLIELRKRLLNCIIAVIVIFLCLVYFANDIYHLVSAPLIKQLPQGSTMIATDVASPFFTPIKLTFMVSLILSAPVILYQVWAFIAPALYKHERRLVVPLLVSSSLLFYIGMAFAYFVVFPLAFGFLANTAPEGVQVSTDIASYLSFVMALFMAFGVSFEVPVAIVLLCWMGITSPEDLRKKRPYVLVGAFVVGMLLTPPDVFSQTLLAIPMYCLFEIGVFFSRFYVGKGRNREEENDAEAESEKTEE
T1 sequence (P69425 whole entry): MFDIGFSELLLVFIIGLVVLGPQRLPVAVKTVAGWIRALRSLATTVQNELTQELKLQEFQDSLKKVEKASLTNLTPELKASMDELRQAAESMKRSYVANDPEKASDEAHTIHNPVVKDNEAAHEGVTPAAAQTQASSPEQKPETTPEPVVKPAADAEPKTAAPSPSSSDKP
T1 sequence (P69428 whole entry): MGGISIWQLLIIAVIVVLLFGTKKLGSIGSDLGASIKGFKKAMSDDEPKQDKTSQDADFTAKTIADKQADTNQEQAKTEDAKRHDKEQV

## CC(=O)NC1=CC(=O)c2nonc2C1=O [Compound 55^JS, N-(4,7-dioxo-2,1,3-benzoxadiazol-5-yl)acetamide]
[1]
  outcome of NADH-dependent in vitro Tat transport screen (survival = visible inhibition of Tat transport): survived
[2]
  outcome of ATP-dependent in vitro Tat transport screen (survival = visible inhibition of Tat transport): eliminated

— article PMC4764201, “High Throughput Screen for Escherichia coli Twin Arginine Translocation (Tat) Inhibitors” (PLoS ONE, 2016)
